One data set has as its system female NMRI mice. Description: Anorectic action: cumulated milk consumption after oral administration. The class given is in vivo. As to the method:
The anorectic action was tested on female NMRI mice. After withdrawal of food for 24 hours, the test preparation of the invention was administered via a stomach tube. Kept individually and with free access to drinking water, the animals were offered evaporated milk 30 minutes after the administration of the preparation. The consumption of evaporated milk was determined every half-hour for 7 hours and the general condition of the animals was observed. The measured milk consumption was compared with that of untreated control animals.

What is called melting point is the temperature of the solid-liquid transition.

`OC12N=C(c3ccccc3)SC1(Br)Cc1cc(Cl)ccc12` (stereo not drawn) [Example 1, 8a-Bromo-6-chloro-2-phenyl-8,8a-dihydroindeno[1,2-d]thiazol-3a-ol]: the melting point worked out at 148 °C. The “Number of animals/ cumulated milk consumption of the treated animals N/[ml]” value in the data set on female NMRI mice (oral dose 50 mg/kg via stomach tube, female NMRI mice after 24 h food withdrawal, evaporated milk consumption determined over 7 hours, N=5) was 5/0.64 ml. Also, in the data set on female NMRI mice (oral dose 50 mg/kg, female NMRI mice, compared to untreated control animals), the “Reduction of the cumulated milk consumption in % of the control” value turned out to be 82%.
